Experimental data taken from the supplement of paper PMC10307832.

Columns and labels:
Assay in all cases: relative viability (nuclei count vs DMSO), 5 days (fraction); higher = more cells survive
CUDC-101 + Lapatinib = compound: C#Cc1cccc(Nc2ncnc3cc(OC)c(OCCCCCCC(=O)NO)cc23)c1 [CUDC-101] + CS(=O)(=O)CCNCc1ccc(-c2ccc3ncnc(Nc4ccc(OCc5cccc(F)c5)c(Cl)c4)c3c2)o1 [Lapatinib] (partner 2 µM)
Method in brief: (§1)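 Lung cancer cell lines, seeded in 1536-well plates, were treated the following day by pin tool with a single drug or with five library-drug doses (not always all listed) in √10 steps on top of a fixed anchor-drug dose. Cells were fixed and nuclei stained in one step after 5 days, and nuclei were counted. Relative viability is the nuclei count for treated wells divided by that for vehicle wells, reported as medians of duplicate plates.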

CUDC-101 + Olaparib = compound: C#Cc1cccc(Nc2ncnc3cc(OC)c(OCCCCCCC(=O)NO)cc23)c1 [CUDC-101] + O=C(c1cc(Cc2n[nH]c(=O)c3ccccc23)ccc1F)N1CCN(C(=O)C2CC2)CC1 [Olaparib] (partner 8 µM)
Method in brief: as §1

NVP-TAE684 + Bortezomib = compound: COc1cc(N2CCC(N3CCN(C)CC3)CC2)ccc1Nc1ncc(Cl)c(Nc2ccccc2S(=O)(=O)C(C)C)n1 [NVP-TAE684] + CC(C)C[C@H](NC(=O)[C@H](Cc1ccccc1)NC(=O)c1cnccn1)B(O)O [Bortezomib] (partner 0.002 µM)
Method in brief: as §1

NVP-TAE684 + Navitoclax = compound: COc1cc(N2CCC(N3CCN(C)CC3)CC2)ccc1Nc1ncc(Cl)c(Nc2ccccc2S(=O)(=O)C(C)C)n1 [NVP-TAE684] + CC1(C)CCC(c2ccc(Cl)cc2)=C(CN2CCN(c3ccc(C(=O)NS(=O)(=O)c4ccc(N[C@H](CCN5CCOCC5)CSc5ccccc5)c(S(=O)(=O)C(F)(F)F)c4)cc3)CC2)C1 [Navitoclax] (partner 0.5 µM)
Method in brief: as §1

NVP-TAE684 + Vorinostat = compound: COc1cc(N2CCC(N3CCN(C)CC3)CC2)ccc1Nc1ncc(Cl)c(Nc2ccccc2S(=O)(=O)C(C)C)n1 [NVP-TAE684] + O=C(CCCCCCC(=O)Nc1ccccc1)NO [Vorinostat] (partner 1 µM)
Method in brief: as §1

Cell Line	relative viability (CUDC-101 + Lapatinib; first compound 0.01 µM)	relative viability (CUDC-101 + Lapatinib; first compound 0.03162 µM)	relative viability (CUDC-101 + Lapatinib; first compound 0.1 µM)	relative viability (CUDC-101 + Lapatinib; first compound 0.3162 µM)	relative viability (CUDC-101 + Lapatinib; first compound 1 µM)	relative viability (CUDC-101 + Olaparib; first compound 0.01 µM)	relative viability (CUDC-101 + Olaparib; first compound 0.03162 µM)	relative viability (CUDC-101 + Olaparib; first compound 0.1 µM)	relative viability (CUDC-101 + Olaparib; first compound 0.3162 µM)	relative viability (CUDC-101 + Olaparib; first compound 1 µM)	relative viability (NVP-TAE684 + Bortezomib; first compound 0.2 µM)	relative viability (NVP-TAE684 + Bortezomib; first compound 0.6325 µM)	relative viability (NVP-TAE684 + Bortezomib; first compound 2 µM)	relative viability (NVP-TAE684 + Navitoclax; first compound 0.2 µM)	relative viability (NVP-TAE684 + Navitoclax; first compound 0.6325 µM)	relative viability (NVP-TAE684 + Navitoclax; first compound 2 µM)	relative viability (NVP-TAE684 + Vorinostat; first compound 0.2 µM)	relative viability (NVP-TAE684 + Vorinostat; first compound 0.6325 µM)	relative viability (NVP-TAE684 + Vorinostat; first compound 2 µM)
NCI-H23	1.08	0.963	1.19	0.918	0.559	0.271	0.373	0.323	0.302	0.248	0.867	0.993	0.54	0.806	0.785	0.607	0.844	0.463	0.362
NCI-H322M	0.618	0.648	0.521	0.575	0.603	0.789	0.674	0.771	0.692	0.594	1.23	1.16	0.924	1.21	1.3	1.2	0.858	0.811	0.565
NCI-H460	1.04	0.994	0.873	0.919	0.339	0.458	0.42	0.428	0.465	0.349	1.77	1.2	0.593		1.14	0.407		0.806	0.106
NCI-H520	0.94		0.879	0.76	0.323	0.298	0.325	0.305	0.298	0.194		0.672	0.321	1.11	1.13	0.357	0.776	0.681	0.313
NCI-H596	1.04	1.04	1.03	1.08	0.982	0.616	0.597	0.718	0.689	0.67	1.3	0.919		0.936	0.969	0.509	0.565	0.578	0.647
NCI-H647	1.25	1.1	1.02	0.863	0.271	0.547	0.522	0.67	0.554	0.342	1.38	1.11	0.77	1.4	1.06	1.16	0.792	0.6	0.174
NCI-H727	0.825	0.531	0.844	0.801	0.678	0.797	0.623	0.708	0.699	0.461	0.684	0.887	0.506	0.381	0.331	0.153	1.09	1.25	0.869
NCI-H838	0.934	1	1.03	1.11	0.552	0.802	0.784	0.807	0.649	0.489	0.86	0.902	0.399	1.43	1.09	0.403	0.76	0.692	0.334
